Reference: PubChem BioAssay AID256 (DTP/NCI, 2004)
Values joined by “and” are separate entries in the source; they are usually repeats but may differ in a detail not shown here. Identical values can stand only once. Inconclusive results and toxic doses are left out.

System: CD2F1 mice, L1210 leukemia ip, survival T/C
Assay: NCI In Vivo Anticancer Drug Screen. Data for tumor model L1210 Leukemia (intraperitoneal) in CD2F1 (CDF1) mice
Conditions: higher = longer survival
How it was run: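 Compound-dosed mice with transplantable tumor versus matched vehicle controls; endpoint ratio T/C reported.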

[1] = endpoint: mean survival time, dose: 50.0 mg/kg/injection, schedule: Q01DX009 (ip), vehicle: saline with Tween-80
[2] = endpoint: mean survival time, dose: 100.0 mg/kg/injection, schedule: Q01DX009 (ip), vehicle: saline with Tween-80
[3] = endpoint: mean survival time, dose: 200.0 mg/kg/injection, schedule: Q01DX009 (ip), vehicle: saline with Tween-80
[4] = endpoint: mean survival time, dose: 100.0 mg/kg/injection, schedule: Q04DX003 (ip), vehicle: saline with Tween-80
[5] = endpoint: mean survival time, dose: 200.0 mg/kg/injection, schedule: Q04DX003 (ip), vehicle: saline with Tween-80
[6] = endpoint: mean survival time, dose: 100.0 mg/kg/injection, schedule: Q01DX009 (ip), vehicle: other
[7] = endpoint: mean survival time, dose: 400.0 mg/kg/injection, schedule: Q04DX003 (ip), vehicle: saline with Tween-80
[8] = endpoint: mean survival time, dose: 400.0 mg/kg/injection, schedule: Q01DX009 (ip), vehicle: saline with Tween-80
[9] = endpoint: mean survival time, dose: 25.0 mg/kg/injection, schedule: Q01DX009 (ip), vehicle: saline with Tween-80
[10] = endpoint: mean survival time, dose: 25.0 mg/kg/injection, schedule: Q04DX002 (ip), vehicle: saline with Tween-80
[11] = endpoint: mean survival time, dose: 50.0 mg/kg/injection, schedule: Q04DX002 (ip), vehicle: saline with Tween-80
[12] = endpoint: mean survival time, dose: 100.0 mg/kg/injection, schedule: Q04DX002 (ip), vehicle: saline with Tween-80
[13] = endpoint: mean survival time, dose: 100.0 mg/kg/injection, schedule: Q01DX001 (ip), vehicle: saline with Tween-80

CC(C)CCOC(=S)S.[Pt]
T/C (endpoint: mean survival time, dose: 9.37 mg/kg/injection, schedule: Q04DX003 (ip), vehicle: saline with Tween-80): 112 % of control | T/C (endpoint: mean survival time, dose: 18.75 mg/kg/injection, schedule: Q04DX003 (ip), vehicle: saline with Tween-80): 96 % of control | T/C (endpoint: mean survival time, dose: 37.5 mg/kg/injection, schedule: Q04DX003 (ip), vehicle: saline with Tween-80): 96 % of control | T/C (endpoint: mean survival time, dose: 75.0 mg/kg/injection, schedule: Q04DX003 (ip), vehicle: saline with Tween-80): 104 % of control | T/C (endpoint: mean survival time, dose: 150.0 mg/kg/injection, schedule: Q04DX003 (ip), vehicle: saline with Tween-80): 96 % of control

c1ccc(Sc2cccc3c(-c4ccccc4)c4cccc5c4c(c23)C[S+]5c2ccccc2)cc1 (stereo not drawn)
T/C (endpoint: mean survival time, dose: 3.13 mg/kg/injection, schedule: Q04DX003 (ip), vehicle: saline with Tween-80): 96 % of control | T/C (endpoint: mean survival time, dose: 6.25 mg/kg/injection, schedule: Q04DX003 (ip), vehicle: saline with Tween-80): 96 % of control | T/C (endpoint: mean survival time, dose: 12.5 mg/kg/injection, schedule: Q04DX003 (ip), vehicle: saline with Tween-80): 93 % of control

Cc1ccc(S(=O)(=O)N/N=C2/C=C3C/C(=N\NS(=O)(=O)c4ccc(C)cc4)C=C3C2)cc1
T/C [1]: 93 % of control | T/C [2]: 89 % of control | T/C [3]: 89 % of control

Cc1ccc(S(=O)(=O)Nc2ccccc2)c(CC(O)(c2ccccc2)c2ccccc2)c1
T/C [4]: 88 % of control | T/C [5]: 88 % of control

C=CCN(N=O)C(=O)OCC
T/C (endpoint: mean survival time, dose: 12.5 mg/kg/injection, schedule: Q01DX009 (ip), vehicle: other): 107 % of control | T/C (endpoint: mean survival time, dose: 25.0 mg/kg/injection, schedule: Q01DX009 (ip), vehicle: other): 107 % of control | T/C (endpoint: mean survival time, dose: 50.0 mg/kg/injection, schedule: Q01DX009 (ip), vehicle: other): 104 % of control | T/C [6]: 113 % of control

CC(CCC(C)(C)O)C1CCC2C3C(O)CC4CCCCC4(C)C3CC(O)C12C (stereo not drawn)
T/C [7]: 88 % of control

[Cl][Pt][Cl].[NH-]C(CC(N)=O)C(=O)O (stereo not drawn)
T/C (endpoint: median survival time, dose: 3.12 mg/kg/injection, schedule: Q04DX003 (ip), vehicle: water): 109 % of control | T/C (endpoint: median survival time, dose: 6.25 mg/kg/injection, schedule: Q04DX003 (ip), vehicle: water): 108 % of control | T/C (endpoint: median survival time, dose: 12.5 mg/kg/injection, schedule: Q04DX003 (ip), vehicle: water): 101 % of control | T/C (endpoint: median survival time, dose: 25.0 mg/kg/injection, schedule: Q04DX003 (ip), vehicle: water): 106 % of control | T/C (endpoint: median survival time, dose: 50.0 mg/kg/injection, schedule: Q04DX003 (ip), vehicle: water): 118 % of control | T/C (endpoint: median survival time, dose: 100.0 mg/kg/injection, schedule: Q04DX003 (ip), vehicle: water): 110 % of control

C1CC[N-]CC1.C1CC[N-]CC1.CC(=O)CC(C)=O.CC(=O)CC(C)=O.[Ni+2]
T/C (endpoint: mean survival time, dose: 10.0 mg/kg/injection, schedule: Q04DX003 (ip), vehicle: saline): 94 % of control | T/C (endpoint: mean survival time, dose: 20.0 mg/kg/injection, schedule: Q04DX003 (ip), vehicle: saline): 96 % of control | T/C (endpoint: mean survival time, dose: 40.0 mg/kg/injection, schedule: Q04DX003 (ip), vehicle: saline): 104 % of control

O=c1ccn(Cc2cccc([N+](=O)[O-])c2)c(=O)[nH]1
T/C [2]: 106 % of control | T/C [3]: 104 % of control | T/C [8]: 102 % of control

CC(=O)OC/C=C(C)/C=C/C=C(C)/C=C/C1=C(C)CCCC1(C)C
T/C (endpoint: mean survival time, dose: 200.0 mg/kg/injection, schedule: Q01DX001 (ip), vehicle: steriod suspending solution): 96 % of control | T/C (endpoint: mean survival time, dose: 200.0 mg/kg/injection, schedule: Q01DX009 (ip), vehicle: steriod suspending solution): 96 % of control | T/C (endpoint: mean survival time, dose: 400.0 mg/kg/injection, schedule: Q01DX001 (ip), vehicle: steriod suspending solution): 102 % of control | T/C (endpoint: mean survival time, dose: 400.0 mg/kg/injection, schedule: Q01DX009 (ip), vehicle: steriod suspending solution): 93 % of control | T/C (endpoint: mean survival time, dose: 800.0 mg/kg/injection, schedule: Q01DX001 (ip), vehicle: steriod suspending solution): 92 % of control | T/C (endpoint: mean survival time, dose: 800.0 mg/kg/injection, schedule: Q01DX009 (ip), vehicle: steriod suspending solution): 86 % of control | T/C (endpoint: mean survival time, dose: 1600.0 mg/kg/injection, schedule: Q01DX001 (ip), vehicle: steriod suspending solution): 92 % of control

CC1=CC(C(=O)O)P(C)(=O)C1 (stereo not drawn)
T/C [9]: 101 % of control | T/C [10]: 100 % of control | T/C [1]: 101 % of control | T/C [11]: 91 % of control | T/C [2]: 104 % of control | T/C [12]: 95 % of control

C/C=C(\Br)C(=O)O
T/C [10]: 101 % of control | T/C [11]: 101 % of control | T/C [12]: 104 % of control

O=C1C(O)=Cc2coc(=O)c3ccc(-c4ccccc4)c1c23
T/C [13]: 91 % of control

CN1CCCC1CCNc1nc(C(Cl)(Cl)Cl)nc2cc(Cl)ccc12 (stereo not drawn)
T/C [2]: 98 % of control | T/C [4]: 95 % of control | T/C [3]: 98 % of control | T/C [5]: 90 % of control | T/C [8]: 101 % of control | T/C [7]: 100 % of control

CC(CCC(=O)O)(c1cc(Br)c(O)c(Br)c1)c1cc(Br)c(O)c(Br)c1
T/C [6]: 96 % of control | T/C (endpoint: mean survival time, dose: 200.0 mg/kg/injection, schedule: Q01DX009 (ip), vehicle: other): 102 % of control | T/C (endpoint: mean survival time, dose: 400.0 mg/kg/injection, schedule: Q01DX009 (ip), vehicle: other): 101 % of control

CC(=O)c1ccc2sc3ccccc3c2c1
T/C [2]: 98 % of control | T/C [3]: 93 % of control | T/C [8]: 93 % of control

Nc1cc(NCc2ccco2)ncn1
T/C (endpoint: mean survival time, dose: 37.5 mg/kg/injection, schedule: Q01DX009 (ip), vehicle: Klucel (hydroxypropylcellulose) (HPC)): 107 % of control | T/C (endpoint: mean survival time, dose: 75.0 mg/kg/injection, schedule: Q01DX009 (ip), vehicle: Klucel (hydroxypropylcellulose) (HPC)): 97 % of control and 104 % of control

CC(=O)C1CCC2C3CC=C4CC(n5ccc(=O)[nH]c5=O)CCC4(C)C3CCC12C (stereo not drawn)
T/C (endpoint: mean survival time, dose: 12.5 mg/kg/injection, schedule: Q04DX003 (ip), vehicle: Klucel (hydroxypropylcellulose) (HPC)): 97 % of control | T/C (endpoint: mean survival time, dose: 25.0 mg/kg/injection, schedule: Q04DX003 (ip), vehicle: Klucel (hydroxypropylcellulose) (HPC)): 101 % of control | T/C (endpoint: mean survival time, dose: 50.0 mg/kg/injection, schedule: Q04DX003 (ip), vehicle: Klucel (hydroxypropylcellulose) (HPC)): 97 % of control | T/C (endpoint: mean survival time, dose: 100.0 mg/kg/injection, schedule: Q04DX003 (ip), vehicle: Klucel (hydroxypropylcellulose) (HPC)): 97 % of control | T/C (endpoint: mean survival time, dose: 200.0 mg/kg/injection, schedule: Q04DX003 (ip), vehicle: Klucel (hydroxypropylcellulose) (HPC)): 92 % of control

CC1(C)CC(=O)C2=C(C1)OC1(O)CC(C)(C)CC(=O)C1C2c1ccccc1Cl (stereo not drawn)
T/C [2]: 93 % of control | T/C [4]: 92 % of control | T/C [3]: 93 % of control | T/C [5]: 94 % of control | T/C [8]: 95 % of control | T/C [7]: 96 % of control

O=P(Oc1ccc(OP(=O)(N2CC2)N2CC2)cc1)(N1CC1)N1CC1
T/C (endpoint: mean survival time, dose: 58.0 mg/kg/injection, schedule: Q01DX001 (ip), vehicle: saline): 119 % of control | T/C (endpoint: mean survival time, dose: 133.0 mg/kg/injection, schedule: Q01DX001 (ip), vehicle: saline): 152 % of control | T/C (endpoint: mean survival time, dose: 200.0 mg/kg/injection, schedule: Q01DX001 (ip), vehicle: saline): 179 % of control | T/C (endpoint: mean survival time, dose: 300.0 mg/kg/injection, schedule: Q01DX001 (ip), vehicle: saline): 89 % of control

O/N=C1/C2CCC(C2)C1C(O)(C(F)(F)F)C(F)(F)F (stereo not drawn)
T/C [1]: 93 % of control | T/C [13]: 102 % of control | T/C [2]: 101 % of control | T/C (endpoint: mean survival time, dose: 200.0 mg/kg/injection, schedule: Q01DX001 (ip), vehicle: saline with Tween-80): 92 % of control | T/C [3]: 89 % of control

CNCC(=O)NC(CO)C(=O)NC(CO)C(=O)NC1C(C(N)=O)OC(n2ccc(N)nc2=O)C(O)C1O (stereo not drawn)
T/C (endpoint: mean survival time, dose: 0.19 mg/kg/injection, schedule: Q01DX005 (ip), vehicle: water): 98 % of control | T/C (endpoint: mean survival time, dose: 0.38 mg/kg/injection, schedule: Q01DX005 (ip), vehicle: water): 104 % of control | T/C (endpoint: mean survival time, dose: 0.75 mg/kg/injection, schedule: Q01DX005 (ip), vehicle: water): 98 % of control

COc1ccc(OC)c(C(=O)C[n+]2ccccc2)c1
T/C (endpoint: mean survival time, dose: 12.5 mg/kg/injection, schedule: Q01DX009 (ip), vehicle: saline with Tween-80): 101 % of control | T/C (endpoint: mean survival time, dose: 12.5 mg/kg/injection, schedule: Q04DX003 (ip), vehicle: saline): 106 % of control | T/C [9]: 103 % of control | T/C (endpoint: mean survival time, dose: 25.0 mg/kg/injection, schedule: Q04DX003 (ip), vehicle: saline): 109 % of control | T/C [1]: 100 % of control | T/C (endpoint: mean survival time, dose: 50.0 mg/kg/injection, schedule: Q04DX003 (ip), vehicle: saline): 111 % of control

CCCCCCCCC(=O)N1CCN(C(=O)CCCCCCCC)C1
T/C (endpoint: mean survival time, dose: 75.0 mg/kg/injection, schedule: Q04DX003 (ip), vehicle: saline): 94 % of control | T/C (endpoint: mean survival time, dose: 150.0 mg/kg/injection, schedule: Q04DX003 (ip), vehicle: saline): 97 % of control | T/C (endpoint: mean survival time, dose: 300.0 mg/kg/injection, schedule: Q04DX003 (ip), vehicle: saline): 95 % of control
